Results on ten compounds are retold here after patent EP0152542A1, “Pyrrol-3-carboxylic acids having central analgesic activity” (POLI INDUSTRIA CHIMICA S.p.A., priority 1983, dated 1985).

The structures appear in SMILES notation. A value given as a limit tells only on which side of the number the result lay.

Test system in one series: not listed separately
Nature of the series: Acute toxicity per os in the rat (LD50 at the 14th observation day). The settings on record: in vivo, po. The procedure:
(§1) The analgesic activity of the compounds of for mula I, administered by the oral route has been determined by means of the following tests: • - Phenylquinone test in mice (Hendershot and Forsa ith - J. Pharmacol. Exp. Ther. 123, 237 (1959)) • - Hot plate test - Male albino mice, treated with increasing doses of the compound under test, are placed on a thermostatized plate at 55°C. The time necessary for the mouse to react to the painful stimulus is then measured. An effective dose 50 (ED50) is defined as the dose inducing a 50% increase of the reaction time, with respect to control animals. • - The acute toxicity per os has been studied in the mouse and in the rat and expressed as LD50 at the 14th observation day.
By LD50 is commonly meant the dose expected to kill half of the subjects tested. Consider `Cc1ccc(C(=O)c2c(C)c(C(=O)O)c(C)n2C)cc1` [R=CH3, R1=CH3, R2=H, R3=H], for which the LD50 at 336 h was > 1600 mg/kg.

On to `CCCCn1c(C)c(C(=O)O)c(C)c1C(=O)c1ccc(Cl)cc1` [R=C4H9, R1=Cl, R2=H, R3=H], for which the LD50 at 336 h was > 1600 mg/kg.

Regarding `Cc1c(C(=O)O)c(C)n(C)c1C(=O)c1ccc(Cl)cc1` [R=CH3, R1=Cl, R2=H, R3=H, reference compound], the median lethal dose (LD50) at 336 h was > 1600 mg/kg.

For the compound `Cc1c(C(=O)O)c(C)n(Cc2ccccc2Cl)c1C(=O)c1ccc(Cl)cc1`, the LD50 at 336 h is > 1600 mg/kg.

On to `Cc1c(C(=O)O)c(C)n(C)c1C(=O)c1ccc(Cl)c(Cl)c1` [R=CH3, R1=Cl, R2=Cl, R3=H], for which the LD50 at 336 h was > 1600 mg/kg.

For `Cc1c(C(=O)O)c(C)n(Cc2ccccc2)c1C(=O)c1ccc(Cl)cc1`, the LD50 at 336 h was > 1600 mg/kg.

Take `COc1ccc(C(=O)c2c(C)c(C(=O)O)c(C)n2C)cc1` [R=CH3, R1=OCH3, R2=H, R3=H]: the LD50 at 336 h was > 1600 mg/kg.

The same series, now with this note: in vivo, po, per os, 14th observation day.
Turning to `Cc1c(C(=O)O)c(C)n(C)c1C(=O)c1ccc(Cl)cc1Cl` [R=CH3, R1=Cl, R2=H, R3=Cl, 1,2,4-Trimethyl-5-(2,4-dichlorobenzoyl)-pyrrol-3-carboxylic acid], the LD50 at 336 h was found to be 1700 mg/kg.

Another series deals with cyclooxygenase and the prostaglandinsynthetase.
Experiment: not given
Particulars: known compound, background statement; cited from earlier work.
In the case of `Cc1cc(CC(=O)O)n(C)c1C(=O)c1ccc(Cl)cc1` [Zomepirac, 5-(p-chlorobenzoyl)-1,4-dimethyl-pyrrol-2-acetic acid], the “inhibits the cyclooxygenase and the prostaglandinesynthetase” value is listed as “inhibits”.

The test system of the next series is Male albino mice. Description: Hot plate test (thermostatized plate at 55°C, reaction time to painful stimulus). Particulars: Mus musculus, comparison compound, route not given, read-out: ED50 hot plate. The series is classed as in vivo. On the technique in general: Hot-plate and tail-flick tests time the reaction to a heat stimulus.
The term ED50 denotes the dose at which the effect has come halfway, by size or by number of responders. Consider `COc1ccc2c3c1O[C@H]1[C@@H](O)C=C[C@H]4[C@@H](C2)N(C)CC[C@@]341.Cl` [codeine hydrochloride, reference compound], for which the ED50 was 25 mg/kg.

Staying with this series, now noted: Mus musculus, sc, S.C., ED50 = dose inducing a 50% increase of the reaction time versus controls, plate at 55°C, read-out: HOT PLATE ED50 S.C. MICE.
On to `Cc1ccc(C(=O)c2c(C)c(C(=O)O)c(C)n2C)cc1` [R=CH3, R1=CH3, R2=H, R3=H], for which the 50% effective dose (ED50) is > 10 mg/kg.

With `CCCCn1c(C)c(C(=O)O)c(C)c1C(=O)c1ccc(Cl)cc1` [R=C4H9, R1=Cl, R2=H, R3=H], the ED50 worked out at 2.9 mg/kg.

In the case of `Cc1c(C(=O)O)c(C)n(C)c1C(=O)c1ccc(Cl)cc1` [R=CH3, R1=Cl, R2=H, R3=H, reference compound], the ED50 came to 2.3 mg/kg.

Consider `Cc1c(C(=O)O)c(C)n(Cc2ccccc2Cl)c1C(=O)c1ccc(Cl)cc1`, for which the ED50 was 5.5 mg/kg.

In the case of `Cc1c(C(=O)O)c(C)n(C)c1C(=O)c1ccc(Cl)c(Cl)c1` [R=CH3, R1=Cl, R2=Cl, R3=H], the ED50 turned out to be 4.7 mg/kg.

Consider `Cc1c(C(=O)O)c(C)n(C)c1C(=O)c1ccc(Cl)cc1Cl` [R=CH3, R1=Cl, R2=H, R3=Cl, 1,2,4-Trimethyl-5-(2,4-dichlorobenzoyl)-pyrrol-3-carboxylic acid], for which the ED50 was determined as 5.7 mg/kg.

Take `Cc1c(C(=O)O)c(C)n(Cc2ccccc2)c1C(=O)c1ccc(Cl)cc1`: the ED50 is 4.8 mg/kg.

On to `COc1ccc(C(=O)c2c(C)c(C(=O)O)c(C)n2C)cc1` [R=CH3, R1=OCH3, R2=H, R3=H], for which the ED50 amounted to 7.6 mg/kg.

Test system in a further series: not listed separately
Nature of the series: Acute toxicity per os in the mouse (LD50 at the 14th observation day). The settings on record: in vivo, po, comparison compound, per os, read-out: LD50 mouse per os. As to the method: as §1
For `COc1ccc2c3c1O[C@H]1[C@@H](O)C=C[C@H]4[C@@H](C2)N(C)CC[C@@]341.Cl` [codeine hydrochloride, reference compound], the LD50 at 336 h is 300 mg/kg.

The same series, now with this note: in vivo, po, mice, per os, 14th observation day, read-out: LD50 MICE OS.
Take `Cc1c(C(=O)O)c(C)n(C)c1C(=O)c1ccc(Cl)cc1Cl` [R=CH3, R1=Cl, R2=H, R3=Cl, 1,2,4-Trimethyl-5-(2,4-dichlorobenzoyl)-pyrrol-3-carboxylic acid]: the LD50 at 336 h was found to be 1400 mg/kg.

Staying with this series, now noted: in vivo, po, read-out: LD50 MICE OS.
Take `Cc1ccc(C(=O)c2c(C)c(C(=O)O)c(C)n2C)cc1` [R=CH3, R1=CH3, R2=H, R3=H]: the LD50 at 336 h turned out to be 1400 mg/kg.

As to `CCCCn1c(C)c(C(=O)O)c(C)c1C(=O)c1ccc(Cl)cc1` [R=C4H9, R1=Cl, R2=H, R3=H], the LD50 at 336 h came out at 1300 mg/kg.

Consider `Cc1c(C(=O)O)c(C)n(C)c1C(=O)c1ccc(Cl)cc1` [R=CH3, R1=Cl, R2=H, R3=H, reference compound], for which the LD50 at 336 h worked out at 800 mg/kg.

For `Cc1c(C(=O)O)c(C)n(Cc2ccccc2Cl)c1C(=O)c1ccc(Cl)cc1`, the LD50 at 336 h was 1200 mg/kg.

In the case of `Cc1c(C(=O)O)c(C)n(C)c1C(=O)c1ccc(Cl)c(Cl)c1` [R=CH3, R1=Cl, R2=Cl, R3=H], the LD50 at 336 h is 800 mg/kg.

For `Cc1c(C(=O)O)c(C)n(Cc2ccccc2)c1C(=O)c1ccc(Cl)cc1`, the LD50 at 336 h is 1500 mg/kg.

Take `COc1ccc(C(=O)c2c(C)c(C(=O)O)c(C)n2C)cc1` [R=CH3, R1=OCH3, R2=H, R3=H]: the LD50 at 336 h is > 1600 mg/kg.

A further series concerns mice. Nature of the series: Phenylquinone test in mice (analgesic activity). The class given is in vivo. Particulars: Mus musculus, po, read-out: ED50 phenylquinone. As to the method: as §1
As for `COc1ccc2c3c1O[C@H]1[C@@H](O)C=C[C@H]4[C@@H](C2)N(C)CC[C@@]341.Cl` [codeine hydrochloride, reference compound], the ED50 came to 5.6 mg/kg.

Staying with this series, now noted: Mus musculus; mice, oral; read-out: PHENYLQUINONE ED50 OS.
On to `Cc1ccc(C(=O)c2c(C)c(C(=O)O)c(C)n2C)cc1` [R=CH3, R1=CH3, R2=H, R3=H], for which the ED50 came to 10 mg/kg.

`CCCCn1c(C)c(C(=O)O)c(C)c1C(=O)c1ccc(Cl)cc1` [R=C4H9, R1=Cl, R2=H, R3=H]: the ED50 amounted to 6.3 mg/kg.

As to `Cc1c(C(=O)O)c(C)n(C)c1C(=O)c1ccc(Cl)cc1` [R=CH3, R1=Cl, R2=H, R3=H, reference compound], the ED50 is 4.6 mg/kg.

In the case of `Cc1c(C(=O)O)c(C)n(Cc2ccccc2Cl)c1C(=O)c1ccc(Cl)cc1`, the median effective dose (ED50) was determined as 10.8 mg/kg.

For `Cc1c(C(=O)O)c(C)n(C)c1C(=O)c1ccc(Cl)c(Cl)c1` [R=CH3, R1=Cl, R2=Cl, R3=H], the ED50 worked out at 7.5 mg/kg.

Take `Cc1c(C(=O)O)c(C)n(C)c1C(=O)c1ccc(Cl)cc1Cl` [R=CH3, R1=Cl, R2=H, R3=Cl, 1,2,4-Trimethyl-5-(2,4-dichlorobenzoyl)-pyrrol-3-carboxylic acid]: the ED50 was 10.9 mg/kg.

Consider `Cc1c(C(=O)O)c(C)n(Cc2ccccc2)c1C(=O)c1ccc(Cl)cc1`, for which the ED50 was found to be 7.6 mg/kg.

As to `COc1ccc(C(=O)c2c(C)c(C(=O)O)c(C)n2C)cc1` [R=CH3, R1=OCH3, R2=H, R3=H], the ED50 stood at 8.4 mg/kg.
